Active and inactive are the calls of the source.
What was measured:
HEK293 [1] = assay: cells; details: Homo sapiens
[2] = target: T1, Short transient receptor potential channel 4 (Mus musculus, UniProt Q9QUQ5); assay: calcium entry via TRPC4 opening agents – cell-based, HEK293 TRPC4/mu-opioid, Fluo-4 calcium, dose response (AID 434937); format: functional
T1 sequence (Q9QUQ5 whole entry): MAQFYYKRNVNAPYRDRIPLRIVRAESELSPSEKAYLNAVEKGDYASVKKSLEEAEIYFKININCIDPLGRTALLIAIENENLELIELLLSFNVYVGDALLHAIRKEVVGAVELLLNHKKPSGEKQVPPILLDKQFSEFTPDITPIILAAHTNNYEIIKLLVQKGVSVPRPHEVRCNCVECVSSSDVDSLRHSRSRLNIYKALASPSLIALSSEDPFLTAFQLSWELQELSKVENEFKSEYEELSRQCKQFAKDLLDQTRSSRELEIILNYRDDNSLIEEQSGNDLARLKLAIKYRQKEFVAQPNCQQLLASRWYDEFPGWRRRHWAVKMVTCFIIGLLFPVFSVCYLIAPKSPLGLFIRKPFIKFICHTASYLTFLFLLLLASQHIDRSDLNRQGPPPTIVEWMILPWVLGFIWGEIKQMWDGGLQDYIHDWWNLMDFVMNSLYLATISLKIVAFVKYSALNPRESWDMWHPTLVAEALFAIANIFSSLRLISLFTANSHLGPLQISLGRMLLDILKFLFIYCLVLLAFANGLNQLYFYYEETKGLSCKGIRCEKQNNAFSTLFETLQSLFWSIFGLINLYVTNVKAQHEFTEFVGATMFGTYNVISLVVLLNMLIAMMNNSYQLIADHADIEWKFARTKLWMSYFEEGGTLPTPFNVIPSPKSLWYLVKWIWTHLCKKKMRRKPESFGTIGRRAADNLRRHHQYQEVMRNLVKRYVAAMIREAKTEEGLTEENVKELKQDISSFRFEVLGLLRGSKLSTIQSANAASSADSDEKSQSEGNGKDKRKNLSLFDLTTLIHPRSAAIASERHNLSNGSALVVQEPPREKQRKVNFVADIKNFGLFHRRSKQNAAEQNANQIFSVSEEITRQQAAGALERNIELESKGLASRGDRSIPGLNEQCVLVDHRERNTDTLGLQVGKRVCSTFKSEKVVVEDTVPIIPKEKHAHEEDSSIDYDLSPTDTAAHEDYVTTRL

Beta-galactosidase = Beta-galactosidase (Escherichia coli, UniProt Q8VNN2); format: functional
Sequence of Beta-galactosidase (Q8VNN2 whole entry): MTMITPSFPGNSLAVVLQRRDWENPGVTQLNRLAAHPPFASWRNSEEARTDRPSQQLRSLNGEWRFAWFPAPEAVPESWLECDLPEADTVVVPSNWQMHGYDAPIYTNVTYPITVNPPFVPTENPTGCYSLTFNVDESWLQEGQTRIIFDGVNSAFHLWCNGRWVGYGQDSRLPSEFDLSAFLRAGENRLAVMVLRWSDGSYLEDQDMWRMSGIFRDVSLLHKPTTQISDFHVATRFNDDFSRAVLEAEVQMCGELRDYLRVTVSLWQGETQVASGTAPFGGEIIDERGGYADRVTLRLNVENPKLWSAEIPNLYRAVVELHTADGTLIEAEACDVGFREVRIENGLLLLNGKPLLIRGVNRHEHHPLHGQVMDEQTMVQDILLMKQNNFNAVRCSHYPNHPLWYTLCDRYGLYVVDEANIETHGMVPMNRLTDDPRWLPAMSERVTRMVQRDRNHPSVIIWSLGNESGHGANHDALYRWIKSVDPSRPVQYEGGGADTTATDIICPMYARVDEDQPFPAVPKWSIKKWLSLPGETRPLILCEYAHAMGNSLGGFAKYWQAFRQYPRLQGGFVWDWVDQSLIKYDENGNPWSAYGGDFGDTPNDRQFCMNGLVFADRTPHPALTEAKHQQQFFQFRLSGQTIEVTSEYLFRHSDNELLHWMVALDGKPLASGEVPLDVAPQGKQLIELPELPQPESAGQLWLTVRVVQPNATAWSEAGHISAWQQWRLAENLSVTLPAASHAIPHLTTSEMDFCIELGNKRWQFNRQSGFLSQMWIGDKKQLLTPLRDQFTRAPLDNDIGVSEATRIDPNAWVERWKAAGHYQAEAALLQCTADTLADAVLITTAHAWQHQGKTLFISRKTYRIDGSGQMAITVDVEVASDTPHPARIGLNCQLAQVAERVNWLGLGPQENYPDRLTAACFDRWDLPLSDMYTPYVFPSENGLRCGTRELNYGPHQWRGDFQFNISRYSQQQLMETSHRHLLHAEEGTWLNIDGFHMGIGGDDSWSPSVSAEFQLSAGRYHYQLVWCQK

[3] = target: T2, Delta-type opioid receptor (Homo sapiens, UniProt P41143); assay: HTS Image-Based Screen for Antagonists of the DOR Receptor. [Related pubchem assays (depositor defined):AID1777, AID1785, AID1786, AID2133]; format: functional
T2 sequence (P41143 whole entry): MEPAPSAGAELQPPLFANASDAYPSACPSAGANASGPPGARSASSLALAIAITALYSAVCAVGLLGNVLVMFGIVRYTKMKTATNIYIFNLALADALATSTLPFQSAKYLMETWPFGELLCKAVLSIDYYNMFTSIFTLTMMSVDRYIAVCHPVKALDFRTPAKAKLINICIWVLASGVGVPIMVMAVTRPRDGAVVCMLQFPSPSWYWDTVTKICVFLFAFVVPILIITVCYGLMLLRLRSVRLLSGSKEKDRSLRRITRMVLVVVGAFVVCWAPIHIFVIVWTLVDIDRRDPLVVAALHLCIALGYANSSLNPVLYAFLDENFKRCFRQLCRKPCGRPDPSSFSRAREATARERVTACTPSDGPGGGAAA

[4] = target: T3, Kappa-type opioid receptor (Homo sapiens, UniProt P41145); format: functional
T3 sequence (P41145 whole entry): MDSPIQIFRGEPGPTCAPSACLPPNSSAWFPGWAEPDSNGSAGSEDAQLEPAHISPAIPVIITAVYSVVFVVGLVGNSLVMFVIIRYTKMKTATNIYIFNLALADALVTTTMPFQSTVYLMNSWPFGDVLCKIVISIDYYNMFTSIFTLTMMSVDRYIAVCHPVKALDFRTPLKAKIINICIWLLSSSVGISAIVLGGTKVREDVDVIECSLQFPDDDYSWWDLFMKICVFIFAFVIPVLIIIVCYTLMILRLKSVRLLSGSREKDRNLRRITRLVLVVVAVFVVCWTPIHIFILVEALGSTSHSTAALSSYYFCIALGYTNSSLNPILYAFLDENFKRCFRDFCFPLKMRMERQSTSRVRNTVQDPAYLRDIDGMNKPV

[5] = target: T4, Histone-lysine N-methyltransferase NSD2 (Homo sapiens, UniProt O96028); format: biochemical
T4 sequence (O96028 whole entry): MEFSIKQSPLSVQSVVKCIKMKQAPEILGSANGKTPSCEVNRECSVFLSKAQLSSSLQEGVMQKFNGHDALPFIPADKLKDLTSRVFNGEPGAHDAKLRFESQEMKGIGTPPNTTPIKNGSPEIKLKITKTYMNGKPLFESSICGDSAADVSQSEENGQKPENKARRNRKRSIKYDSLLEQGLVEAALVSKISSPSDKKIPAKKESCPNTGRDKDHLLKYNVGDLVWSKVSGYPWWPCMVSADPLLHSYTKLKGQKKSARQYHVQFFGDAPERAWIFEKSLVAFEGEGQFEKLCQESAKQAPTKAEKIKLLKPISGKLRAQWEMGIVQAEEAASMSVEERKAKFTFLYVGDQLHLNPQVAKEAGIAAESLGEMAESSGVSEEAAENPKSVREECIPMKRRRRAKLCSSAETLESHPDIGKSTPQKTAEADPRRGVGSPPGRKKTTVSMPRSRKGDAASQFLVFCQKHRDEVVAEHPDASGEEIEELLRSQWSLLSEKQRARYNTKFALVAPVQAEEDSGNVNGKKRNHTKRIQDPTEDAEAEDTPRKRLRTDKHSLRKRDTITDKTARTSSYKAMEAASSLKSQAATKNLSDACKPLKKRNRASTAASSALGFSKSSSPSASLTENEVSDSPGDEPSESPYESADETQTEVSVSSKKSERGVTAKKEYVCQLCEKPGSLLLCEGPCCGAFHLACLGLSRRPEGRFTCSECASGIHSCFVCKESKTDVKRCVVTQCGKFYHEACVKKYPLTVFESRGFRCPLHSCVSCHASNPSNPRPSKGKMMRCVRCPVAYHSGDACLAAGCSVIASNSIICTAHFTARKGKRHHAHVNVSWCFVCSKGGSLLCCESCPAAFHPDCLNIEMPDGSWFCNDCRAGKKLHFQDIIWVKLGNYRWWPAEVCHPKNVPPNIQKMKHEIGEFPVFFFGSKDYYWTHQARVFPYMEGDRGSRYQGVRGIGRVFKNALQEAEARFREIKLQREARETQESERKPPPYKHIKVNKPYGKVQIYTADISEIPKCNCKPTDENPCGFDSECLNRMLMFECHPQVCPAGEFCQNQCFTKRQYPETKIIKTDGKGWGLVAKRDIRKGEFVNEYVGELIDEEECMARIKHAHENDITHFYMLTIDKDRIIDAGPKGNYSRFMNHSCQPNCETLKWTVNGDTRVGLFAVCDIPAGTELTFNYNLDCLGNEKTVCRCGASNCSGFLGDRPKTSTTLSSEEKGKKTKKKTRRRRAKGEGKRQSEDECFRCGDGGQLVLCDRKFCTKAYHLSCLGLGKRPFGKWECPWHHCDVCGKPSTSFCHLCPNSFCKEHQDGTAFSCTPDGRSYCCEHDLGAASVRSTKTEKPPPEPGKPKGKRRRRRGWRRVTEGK

[6] = target: T2, Delta-type opioid receptor; assay: HTS Image-Based Screen for Agonists of the DOR Receptor. [Related pubchem assays (depositor defined):AID1777, AID1786, AID2133]; format: functional
[7] = loss of viability in HepG2 cells – cell-based, CellTiter-Glo, cherry-picked, cytotoxicity control for Shn3 inhibitor project, dose response (AID 624134); format: functional
Mu-type opioid receptor = Mu-type opioid receptor (Homo sapiens, UniProt P35372); assay: HTS Image-Based Screen for Agonists of the MOR Receptor. [Related pubchem assays (depositor defined):AID1777, AID1785, AID1786, AID2133]; format: functional;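 also: imaging of beta-arrestin GFP recruitment into spots after receptor activation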
Sequence of Mu-type opioid receptor (P35372 whole entry): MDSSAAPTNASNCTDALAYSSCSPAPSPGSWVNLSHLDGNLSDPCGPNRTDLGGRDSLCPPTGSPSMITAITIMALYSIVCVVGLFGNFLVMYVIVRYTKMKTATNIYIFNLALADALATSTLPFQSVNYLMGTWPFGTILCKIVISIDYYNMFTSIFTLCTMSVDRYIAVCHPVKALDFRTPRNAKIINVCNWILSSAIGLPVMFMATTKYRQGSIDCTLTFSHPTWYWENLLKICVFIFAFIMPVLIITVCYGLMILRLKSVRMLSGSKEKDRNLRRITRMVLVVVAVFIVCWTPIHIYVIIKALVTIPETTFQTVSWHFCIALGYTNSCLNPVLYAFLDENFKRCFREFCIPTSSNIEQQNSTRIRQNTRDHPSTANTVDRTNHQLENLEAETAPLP

[8] = target: T3, Kappa-type opioid receptor; format: functional; remark: listed apart in the source
[9] = viability of uninfected HEp-2 cells – cell-based, HTS, cytotoxicity control for RSV inhibitor project, dose response (AID 2410); format: functional; details: human respiratory syncytial virus
[10] = microbe, parasite or virus in culture; format: functional; details: Mycobacterium tuberculosis
[11] = reduction of Shn3 3'UTR-driven luciferase in osteoblasts – cell-based, Clone20 osteoblasts, firefly luciferase, cherry-picked, dose response (AID 624132); format: functional;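 also: firefly luciferase luminescence from reporter carrying the Shn3 3'UTR in osteoblasts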
HEK293 [12] = assay: cells; details: Homo sapiens; remark: listed apart in the source
HeLa = assay: ATP-based viability loss in HeLa cells – cell-based, CellTiter-Glo luminescence, cherry-pick samples, cytotoxicity control for MITF activator project, dose response (AID 540259); format: functional; details: Homo sapiens
Vero [13] = assay: cells; format: functional, cell-based; details: Chlorocebus sabaeus
Fatty acid synthase [14] = target: T5, Fatty acid synthase (Homo sapiens, UniProt P49327); assay: inhibition of human FAS-TE enzyme activity – biochemical, kinetic fluorescence intensity, dose response (AID 624326); format: functional;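 also: rate of fluorescence rise from hydrolysis of a fluorogenic O-methyl fluorescein ester substrate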
T5 sequence (P49327 whole entry): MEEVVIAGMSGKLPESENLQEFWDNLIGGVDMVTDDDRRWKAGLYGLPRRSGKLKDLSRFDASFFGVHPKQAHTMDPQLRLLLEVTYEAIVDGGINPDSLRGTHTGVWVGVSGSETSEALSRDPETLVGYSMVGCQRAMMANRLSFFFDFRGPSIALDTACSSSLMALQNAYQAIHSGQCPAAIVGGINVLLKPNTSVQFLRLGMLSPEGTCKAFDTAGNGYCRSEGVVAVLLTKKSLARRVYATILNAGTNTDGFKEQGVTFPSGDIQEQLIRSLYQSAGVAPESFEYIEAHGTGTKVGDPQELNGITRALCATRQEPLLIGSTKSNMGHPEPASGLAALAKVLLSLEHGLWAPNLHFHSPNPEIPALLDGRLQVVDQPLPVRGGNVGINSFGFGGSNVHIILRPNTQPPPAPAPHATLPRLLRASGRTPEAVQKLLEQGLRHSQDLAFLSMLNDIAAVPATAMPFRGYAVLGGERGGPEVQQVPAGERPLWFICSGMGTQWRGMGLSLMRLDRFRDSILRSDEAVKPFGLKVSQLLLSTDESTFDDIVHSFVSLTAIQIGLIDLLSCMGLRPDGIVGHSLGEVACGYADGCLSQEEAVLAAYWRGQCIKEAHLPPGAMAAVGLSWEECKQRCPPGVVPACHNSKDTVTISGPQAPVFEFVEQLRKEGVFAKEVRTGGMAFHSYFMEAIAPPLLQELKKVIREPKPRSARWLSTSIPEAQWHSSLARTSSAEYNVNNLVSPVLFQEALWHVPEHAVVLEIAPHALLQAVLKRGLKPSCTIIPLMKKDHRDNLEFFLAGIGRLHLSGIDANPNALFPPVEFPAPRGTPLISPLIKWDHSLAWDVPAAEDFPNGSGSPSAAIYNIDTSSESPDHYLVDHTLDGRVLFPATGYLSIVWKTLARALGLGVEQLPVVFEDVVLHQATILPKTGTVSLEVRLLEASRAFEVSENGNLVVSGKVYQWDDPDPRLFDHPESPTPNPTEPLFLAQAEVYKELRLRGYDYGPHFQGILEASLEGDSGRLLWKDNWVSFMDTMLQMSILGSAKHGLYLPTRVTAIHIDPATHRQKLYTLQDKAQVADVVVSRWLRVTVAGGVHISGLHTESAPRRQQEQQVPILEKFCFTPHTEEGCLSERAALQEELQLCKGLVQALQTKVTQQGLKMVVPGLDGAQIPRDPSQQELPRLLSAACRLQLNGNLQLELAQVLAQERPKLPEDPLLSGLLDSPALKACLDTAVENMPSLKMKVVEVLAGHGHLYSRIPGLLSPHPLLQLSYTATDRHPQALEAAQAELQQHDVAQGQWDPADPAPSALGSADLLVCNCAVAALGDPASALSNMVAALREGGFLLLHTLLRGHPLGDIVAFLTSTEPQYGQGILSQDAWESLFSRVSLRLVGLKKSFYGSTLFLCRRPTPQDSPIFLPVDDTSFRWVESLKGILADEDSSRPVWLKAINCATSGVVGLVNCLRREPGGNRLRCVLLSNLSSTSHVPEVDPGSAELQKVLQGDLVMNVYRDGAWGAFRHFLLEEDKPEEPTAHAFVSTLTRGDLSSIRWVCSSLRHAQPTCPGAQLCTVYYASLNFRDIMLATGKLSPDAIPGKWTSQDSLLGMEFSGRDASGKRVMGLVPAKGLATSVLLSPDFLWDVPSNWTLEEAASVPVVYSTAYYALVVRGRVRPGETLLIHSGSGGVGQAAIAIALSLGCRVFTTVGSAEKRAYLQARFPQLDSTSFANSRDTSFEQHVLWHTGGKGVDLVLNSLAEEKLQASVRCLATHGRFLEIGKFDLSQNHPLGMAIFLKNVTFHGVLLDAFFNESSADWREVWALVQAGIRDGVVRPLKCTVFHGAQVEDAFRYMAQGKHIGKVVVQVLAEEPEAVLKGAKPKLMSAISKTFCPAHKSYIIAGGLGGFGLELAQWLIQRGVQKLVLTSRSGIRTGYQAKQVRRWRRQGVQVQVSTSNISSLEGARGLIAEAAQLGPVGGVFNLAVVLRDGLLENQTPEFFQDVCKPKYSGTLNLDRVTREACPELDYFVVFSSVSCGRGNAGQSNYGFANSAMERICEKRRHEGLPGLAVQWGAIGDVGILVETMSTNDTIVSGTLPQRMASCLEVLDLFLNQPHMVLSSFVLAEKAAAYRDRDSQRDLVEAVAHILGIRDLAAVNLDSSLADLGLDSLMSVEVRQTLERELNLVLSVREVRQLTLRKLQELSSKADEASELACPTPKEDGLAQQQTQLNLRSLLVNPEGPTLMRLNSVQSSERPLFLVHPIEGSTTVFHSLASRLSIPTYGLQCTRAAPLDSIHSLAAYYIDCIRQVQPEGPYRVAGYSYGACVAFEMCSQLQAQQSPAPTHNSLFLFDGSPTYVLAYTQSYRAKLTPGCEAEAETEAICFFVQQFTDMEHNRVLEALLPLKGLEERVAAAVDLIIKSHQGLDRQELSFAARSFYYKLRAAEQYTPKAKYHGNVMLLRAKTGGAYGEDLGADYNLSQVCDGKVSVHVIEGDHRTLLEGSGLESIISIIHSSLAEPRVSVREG

HEK293 [15] = assay: EBV LMP1 TES2 canonical NF-kB signalling blockers – cell-based, HEK293, luciferase, cherry-pick, dose response (AID 588343); format: functional; details: Homo sapiens
Vero [16] = assay: cells; format: functional; details: Chlorocebus sabaeus
Fatty acid synthase [17] = target: T5, Fatty acid synthase; assay: inhibition of human FAS-TE enzyme activity – biochemical, endpoint fluorescence intensity, uHTS hits, dose response (AID 624327); format: functional;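 also: fluorescence from hydrolysis of an O-methyl fluorescein acyl ester substrate by the enzyme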
Escherichia coli = assay: microbe, parasite or virus in culture
[18] = viability of HCT116 lacking mutant beta-catenin – cell-based, human colon tumor, dose response (AID 1045); format: functional;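 also: HCT116 colon tumor cells with beta catenin knocked out; cells exposed to compound for 60 hours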
[19] = viability of PTEN-deleted HCT116 cells – cell-based, HCT116 PTEN knockout, dose response (AID 1047); format: functional;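 also: HCT116 colon tumor cells with PTEN knocked out; cells exposed to compound for 60 hours before readout; potency for loss of cell viability measured by luminescence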

COc1cc(OC)c(OC)cc1CCC(C)NCCC(c1ccccc1)c1ccccc1 (stereo not drawn)
EC50 (HEK293 [1]): > 59.6 µM (inactive) | EC50 [2]: 6.68 µM (active) | EC50 (Beta-galactosidase): > 31.5 µM (inactive) | IC50 [3]: 24.4 µM (inactive) | IC50 [4]: 10.9 µM (active) | AC50 [5]: 15.8 µM (active) | EC50 [6]: > 32 µM (inactive) | AC50 [7]: 8.98 µM (active) | EC50 (Mu-type opioid receptor): > 32 µM (inactive) | IC50 [8]: > 32 µM | CC50 [9]: 14.6 µM (active) | CC50 [10]: 13.9 µM (active) | AC50 [11]: 3.99 µM (active) | EC50 (HEK293 [12]): > 59.6 µM (inactive)

CC(C)Cc1cc(C(=O)Nc2ccc(Br)cc2)no1
AC50 (HeLa): 113 µM (active)

O=C(NC(Cc1c[nH]c2ccccc12)C(=O)Nc1ccc(F)c([N+](=O)[O-])c1)c1cccs1 (stereo not drawn)
IC50 (Vero [13]): 22.4 µM (active) | CC50 [9]: 13.1 µM (active) | IC50 (Fatty acid synthase [14]): 3.78 µM (active) | IC50 (cells): 10.2 µM (active) | AC50 (HEK293 [15]): 1.37 µM (active) | CC50 (Vero [16]): 18.5 µM (active) | IC50 (Fatty acid synthase [17]): 7.53 µM (active)

CCc1ccc(NC(=O)C(S)=NC2CCCCC2)cc1
AC50 (HeLa): 182 µM (active)

O=C(c1cccc(COc2cccc3ccccc23)c1)N1CCCC1
IC50 (Vero [13]): > 25 µM (active) | CC50 [9]: 21.3 µM (active) | IC50 (cells): > 50 µM (active) | CC50 (Vero [16]): > 25 µM (active)

Cc1ccccc1OCC(=O)Nc1ccc(S(=O)(=O)Nc2onc(C)c2C)cc1
AC50 (Escherichia coli): 39.2 µM (active)

COc1cccc(CN(C(=O)Cc2c[nH]c3ccccc23)C(C(=O)NC2CCCCC2)c2ccc(C)o2)c1 (stereo not drawn)
EC50 [18]: 22.3 µM (active) | AC50 (Escherichia coli): 44.4 µM (active) | EC50 [19]: 19.9 µM (active)

Fc1ccccc1CSc1ncnc2c1ncn2C1CCCO1 (stereo not drawn)
IC50 (Vero [13]): 8.43 µM (active)

CC(C)(C)c1nn2cnnc2n(/N=C/c2cccc3ccccc23)c1=O
AC50 (Escherichia coli): 38.5 µM (active)
